Values quoted from earlier work in patent US20250262182A1, “Beverage Composition and Process” (priority 2020, published 2025).
Where two headings read alike, the source gives them in different places.

SMILES: NC(=O)NCCC[C@H](N)C(=O)O [L-citrulline]
- Adverse effects (dosages in the range of 6 g to 10 g): mild gastrointestinal upset
- Adverse effects (dosages in the range of 10 g to 15 g): stomach discomfort, bloating, or diarrhea
- Adverse effects (dosages over 20 g): electrolyte imbalance and/or headaches
- Tolerability (dosages up to 6 g, most people): generally well tolerated
